Assay results published in article PMC9820316, “Novel Arylpiperazine Derivatives of Salicylamide with α1-Adrenolytic Properties Showed Antiarrhythmic and Hypotensive Properties in Rats” (International Journal of Molecular Sciences, 2022).
Marks after values point to notes of the source that are not given here.

Columns and labels:
[1] = tested on: pressor response to methoxamine in rats; test: Influence on blood vasopressor response to methoxamine in rats; assay type: in vivo, rat; details: 1 mg/kg iv, methoxamine 150 μg/kg before and 5 min after compound
Procedure: The experiment was performed to establish the effect of the studied derivatives on the pressor response to methoxamine (150 µg/kg, iv), according to the methods described previously. Normotensive Wistar rats were anesthetized with thiopental (75 mg/kg ip). The right carotid artery was cannulated with a polyethylene tube filled with heparin solution using a Datamax apparatus (Columbus Instruments, Columbus, OH, USA). After a 15-min stabilization period, the pressor response to methoxamine before (control) and 5 min after the administration of the tested compounds was measured (Figure 4B). The tested compounds were administered at the lowest hypotensive dose.

normal ECG in rats = test: Effect on a normal electrocardiogram in rats; assay type: in vivo, rat; details: 5 mg/kg iv; for HR—heart rate / PQ interval / QRS complex / QTc (Bazzett's formula): mean ± SD; for PQ interval / QRS complex / QTc (Bazzett's formula): in ms (unit assumed)
Procedure: The procedure was performed to exclude the negative effects of the tested compounds on the normal ECG, according to the method described earlier. […] Firstly, animals were anesthetized with thiopental (75 mg/kg ip). […] The influence on PQ, QTc interval, QRS complex, and heart rate was evaluated. The Bazzett’s formula: QTc = QT/√RR was used to calculate QTc. All the studied compounds were administered at a dose of 5 mg/kg.

normotensive rats = test: Influence on blood pressure in the normotensive rats; assay type: in vivo, rat; details: for DBP—diastolic blood pressure / SBP—systolic blood pressure: mean ± SD
Procedure: The experiment was performed according to the method described earlier. Normotensive Wistar rats were anesthetized with thiopental (75 mg/kg ip). The right carotid artery was cannulated with a polyethylene tube filled with heparin solution, using a Datamax apparatus (Columbus Instruments, Columbus, OH, USA). After 15 min of the stabilization period, the studied compounds were administered iv, and their effect on systolic and diastolic blood pressure was evaluated (Figure 4A).

α2-adrenergic receptors = test: α2-adrenoceptor radioligand binding assay ([3H]-clonidine, rat cortex); details: rat cortex tissue, mean ± SEM, n.a. = did not bind at 10^−5 M
Procedure: (§1) The α1- and α2-adrenoceptor radioligand binding assays were performed on the rat cerebral cortex using previously described methods. […] The brains were homogenized using the ULTRA-TURRAX homogenizer in 10 mL of an ice-cold 50 mM Tris-HCl buffer (pH 7.6). The homogenates were centrifuged at 20,000× g for 20 min (0–4 °C). Subsequently, the cell pellet was resuspended in the Tris–HCl buffer and centrifuged again. Radioligand binding assays were carried out in plates (MultiScreen/Millipore). The final incubation mixture, with a volume of 300 μL, consisted of 240 μL of the tissue suspension, 30 μL of the radioligand solution, and 30 μL of the buffer containing 7–8 concentrations of the studied compounds. In order to measure the unspecific binding, 10 μM phentolamine (for [^3H]-prazosin) or 10 μM clonidine (for [^3H]-clonidine) were utilized. The incubation was completed by rapid filtration through Whatman GF/C filters using a vacuum manifold (Millipore). The filters were then washed twice with the assay buffer and placed in scintillation vials with a liquid scintillation cocktail. Radioactivity was measured in a WALLAC 1409 DSA liquid scintillation counter (Perkin Elmer, USA). All the assays were performed in duplicates, and the inhibitory constants (Ki) were calculated.

[2] = tested on: adrenaline-induced arrhythmia model in rats; test: Therapeutic antiarrhythmic activity in adrenaline-induced arrhythmia; details: 1 mg/kg iv immediately after adrenaline 20 µg/kg; number of animals with event
α1-adrenergic receptors = test: α1-adrenoceptor radioligand binding assay ([3H]-prazosin, rat cortex); details: rat cortex tissue, mean ± SEM
Procedure: as §1

[3] = tested on: adrenaline-induced arrhythmia model in rats; test: Prophylactic antiarrhythmic activity in adrenaline-induced arrhythmia; assay type: in vivo, rat; details: for Blocks / Bradycardia / Extrasystoles / Mortality: number of animals with event
Procedure: (§2) The animals were anesthetized with thiopental (75 mg/kg ip). Depending on the model, either adrenaline, aconitine, or calcium chloride was used as an arrhythmogen. Adrenaline and aconitine were administered iv at a dose of 20 µg/kg, whereas calcium chloride was administered at a dose of 140 mg/kg to induce heart rhythm disturbances. The tested compounds were injected iv 15 min before the arrhythmogen. Aspel ASCARD apparatus (standard II lead, with the tape speed 50 mm/s and voltage calibration 1 mV = 1 cm) was used for ECG measurements. […] The ED50 was calculated using the method of Litchfield and Wilcoxon.

[4] = tested on: calcium chloride-induced arrhythmia model in rats; test: Prophylactic antiarrhythmic activity in calcium chloride-induced arrhythmia; assay type: in vivo, rat; details: 5 mg/kg iv 15 min before calcium chloride 140 mg/kg; number of animals with event
Procedure: as §2

[5] = 0 min (prior to administration)
[6] = 0.5 mg/kg iv, 0 min (before administration)
[7] = 1.0 mg/kg iv, 0 min (before administration)
[8] = 0.05 mg/kg iv 15 min before adrenaline 20 μg/kg
[9] = 0.1 mg/kg iv 15 min before adrenaline 20 μg/kg
[10] = 0.25 mg/kg iv 15 min before adrenaline 20 μg/kg

With Cl.NC(=O)c1ccccc1OCCCCN1CCN(c2cccc(Cl)c2)CC1 [JJGW01, 2-{4-[4-(3-chlorophenyl)piperazin-1-ylo]butoxy}benzamide hydrochloride] the “attenuation of the methoxamine pressor response” value [1] was 81%, the “effect on the heart rate during the ECG recording” value (normal ECG in rats) was “did not affect the heart rate” and the “HR—heart rate” value (normal ECG in rats; [5]) was 311.8 ± 11.6. For the same molecule, the PQ interval (normal ECG in rats; [5]) was 42.3 ± 3.4, the QRS complex (normal ECG in rats; [5]) was 49.3 ± 7.8 and the “QTc (Bazzett's formula)” value (normal ECG in rats; [5]) was 196.0 ± 14.2. The “HR—heart rate” value (normal ECG in rats; 5 min) was 318.0 ± 28.5, the PQ interval (normal ECG in rats; 5 min) was 42.3 ± 2.0 and the QRS complex (normal ECG in rats; 5 min) was 46.7 ± 5.6. The “QTc (Bazzett's formula)” value (normal ECG in rats; 5 min) was 193.7 ± 14.9, the “HR—heart rate” value (normal ECG in rats; 10 min) was 324.6 ± 23.1 and the PQ interval (normal ECG in rats; 10 min) was 41.3 ± 2.4. The QRS complex (normal ECG in rats; 10 min) was 48.0 ± 4.2, the “QTc (Bazzett's formula)” value (normal ECG in rats; 10 min) was 186.6 ± 9.0 and the “HR—heart rate” value (normal ECG in rats; 15 min) was 324.0 ± 23.1. The PQ interval (normal ECG in rats; 15 min) was 41.0 ± 3.3, the QRS complex (normal ECG in rats; 15 min) was 50.3 ± 4.6 and the “QTc (Bazzett's formula)” value (normal ECG in rats; 15 min) was 190.6 ± 14.5. For the same molecule, the “DBP—diastolic blood pressure” value (normotensive rats; [6]) was 95.3 ± 12.6 mmHg, the “SBP—systolic blood pressure” value (normotensive rats; [6]) was 130.7 ± 14.9 mmHg and the “DBP—diastolic blood pressure” value (normotensive rats; 0.5 mg/kg iv, 5 min) was 88.5 ± 14.3 mmHg. For the same molecule, the “SBP—systolic blood pressure” value (normotensive rats; 0.5 mg/kg iv, 5 min) was 119.0 ± 13.4 mmHg, the “DBP—diastolic blood pressure” value (normotensive rats; 0.5 mg/kg iv, 10 min) was 85.0 ± 13.6 mmHg and the “SBP—systolic blood pressure” value (normotensive rats; 0.5 mg/kg iv, 10 min) was 115.7 ± 13.0 mmHg. For the same molecule, the “DBP—diastolic blood pressure” value (normotensive rats; 0.5 mg/kg iv, 20 min) was 84.8 ± 8.5 mmHg, the “SBP—systolic blood pressure” value (normotensive rats; 0.5 mg/kg iv, 20 min) was 114.7 ± 8.8 mmHg and the “DBP—diastolic blood pressure” value (normotensive rats; 0.5 mg/kg iv, 30 min) was 84.3 ± 6.9 mmHg. For the same molecule, the “SBP—systolic blood pressure” value (normotensive rats; 0.5 mg/kg iv, 30 min) was 114.5 ± 10.2 mmHg, the “DBP—diastolic blood pressure” value (normotensive rats; 0.5 mg/kg iv, 40 min) was 86.0 ± 10.3 mmHg and the “SBP—systolic blood pressure” value (normotensive rats; 0.5 mg/kg iv, 40 min) was 115.2 ± 12.6 mmHg. For the same molecule, the “DBP—diastolic blood pressure” value (normotensive rats; 0.5 mg/kg iv, 50 min) was 88.3 ± 15.3 mmHg, the “SBP—systolic blood pressure” value (normotensive rats; 0.5 mg/kg iv, 50 min) was 116.8 ± 17.3 mmHg and the “DBP—diastolic blood pressure” value (normotensive rats; 0.5 mg/kg iv, 60 min) was 86.8 ± 15.5 mmHg. For the same molecule, the “SBP—systolic blood pressure” value (normotensive rats; 0.5 mg/kg iv, 60 min) was 113.8 ± 16.1 mmHg, the “DBP—diastolic blood pressure” value (normotensive rats; [7]) was 87.7 ± 11.2 mmHg and the “SBP—systolic blood pressure” value (normotensive rats; [7]) was 112.5 ± 11.6 mmHg. The “decrease of the diastolic blood pressure” value (normotensive rats; 1 mg/kg iv, 40th min after administration) was 16%, the “decrease of the diastolic blood pressure” value (normotensive rats; 1 mg/kg iv, 60th min after administration) was 17% and the “DBP—diastolic blood pressure” value (normotensive rats; 1.0 mg/kg iv, 5 min) was 80.2 ± 10.8 mmHg. The “SBP—systolic blood pressure” value (normotensive rats; 1.0 mg/kg iv, 5 min) was 102.5 ± 9.5 ^d mmHg, the “DBP—diastolic blood pressure” value (normotensive rats; 1.0 mg/kg iv, 10 min) was 79.0 ± 11.9 mmHg and the “SBP—systolic blood pressure” value (normotensive rats; 1.0 mg/kg iv, 10 min) was 100.3 ± 10.4 ^d mmHg. The “DBP—diastolic blood pressure” value (normotensive rats; 1.0 mg/kg iv, 20 min) was 77.5 ± 12.1 mmHg, the “SBP—systolic blood pressure” value (normotensive rats; 1.0 mg/kg iv, 20 min) was 99.7 ± 11.3 ^c mmHg and the “DBP—diastolic blood pressure” value (normotensive rats; 1.0 mg/kg iv, 30 min) was 75.7 ± 10.6 mmHg. For the same molecule, the “SBP—systolic blood pressure” value (normotensive rats; 1.0 mg/kg iv, 30 min) was 98.2 ± 10.4 ^c mmHg, the “DBP—diastolic blood pressure” value (normotensive rats; 1.0 mg/kg iv, 40 min) was 73.8 ± 14.0 ^a mmHg and the “SBP—systolic blood pressure” value (normotensive rats; 1.0 mg/kg iv, 40 min) was 95.7 ± 13.3 ^c mmHg. For the same molecule, the “DBP—diastolic blood pressure” value (normotensive rats; 1.0 mg/kg iv, 50 min) was 72.7 ± 11.6 mmHg, the “SBP—systolic blood pressure” value (normotensive rats; 1.0 mg/kg iv, 50 min) was 95.5 ± 11.2 ^d mmHg and the “DBP—diastolic blood pressure” value (normotensive rats; 1.0 mg/kg iv, 60 min) was 73.2 ± 11.3 ^a mmHg. For the same molecule, the “SBP—systolic blood pressure” value (normotensive rats; 1.0 mg/kg iv, 60 min) was 96.5 ± 10.6 ^c mmHg, the “decrease of the systolic blood pressure” value (normotensive rats; 1 mg/kg iv, between the 5th and 60th min after the injection) was 9–15% and the “Adrenergic Receptors—pKi α2” value (α2-adrenergic receptors) was 6.13 ± 0.02. For the same molecule, the Blocks [2] was 3/5, the Bradycardia [2] was 2/5 and the Mortality [2] was 0/5. The “Adrenergic Receptors—pKi α1” value (α1-adrenergic receptors) was 8.40 ± 0.01, the Blocks [3, 8] was 6/6 and the Bradycardia [3, 8] was 6/6. For the same molecule, the Extrasystoles [3, 8] was 6/6, the Mortality [3, 8] was 4/6 and the Blocks [3, 9] was 5/6. The Bradycardia [3, 9] was 3/6, the Extrasystoles [3, 9] was 5/6 and the Mortality [3, 9] was 0/6. The Blocks [3, 10] was 4/6, the Bradycardia [3, 10] was 2/6 and the Extrasystoles [3, 10] was 4/6. For the same molecule, the Mortality [3, 10] was 1/6, the ED50 ([3]; prophylactic, iv 15 min before adrenaline 20 μg/kg, confidence limits in brackets (Litchfield and Wilcoxon)) was 0.10 (0.03–0.36) mg/kg and the Blocks [4] was 6/6. For the same molecule, the Bradycardia [4] was 6/6, the Extrasystoles [4] was 6/6 and the Fibrillations [4] was 6/6. The Mortality [4] was 6/6.
